In the experiment the target is T1, 5-HT4-receptor (5-HT4B membrane preparations) (Homo sapiens, UniProt Q13639).
T1 construct: gene HTR4; 5-HT4B membrane preparations (HTS110M, Millipore), recombinant
Description: radioligand-type competition binding on recombinant 5-HT4B membranes (filtration); partial agonist in cAMP assay. The source says:
radioligand-type competition binding on recombinant 5-HT4B membranes (filtration); partial agonist in cAMP assay on 5-HT4-receptor (5-HT4B membrane preparations) | MR33317 bound with high affinity to recombinant 5-HT4-receptor.
For orientation: cAMP levels reflect the balance of adenylyl cyclase and phosphodiesterase activity.

The structures appear in SMILES notation.

The source of these data is article PMC11522085, “Studies on the mechanisms of action of MR33317” (Naunyn-Schmiedeberg's Archives of Pharmacology, 2024).

T1 sequence (Q13639 whole entry): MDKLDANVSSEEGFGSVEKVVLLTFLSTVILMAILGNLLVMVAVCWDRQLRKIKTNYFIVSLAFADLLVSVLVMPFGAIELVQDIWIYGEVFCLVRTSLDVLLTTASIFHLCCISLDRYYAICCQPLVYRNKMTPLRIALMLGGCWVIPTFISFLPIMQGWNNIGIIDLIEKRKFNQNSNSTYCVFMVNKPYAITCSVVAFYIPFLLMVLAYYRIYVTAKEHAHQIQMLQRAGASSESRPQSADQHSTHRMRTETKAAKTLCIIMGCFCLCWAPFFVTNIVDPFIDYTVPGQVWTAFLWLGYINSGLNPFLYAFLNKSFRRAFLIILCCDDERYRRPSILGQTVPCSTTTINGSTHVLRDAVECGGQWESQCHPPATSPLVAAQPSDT

By Ki is commonly meant a dissociation constant, usually derived from enzyme kinetics or from competition with a known ligand. On to `COc1cc(N)c(Cl)cc1C(=O)CCC1CCN(Cc2cccc(N)c2)CC1` [MR33317], for which the Ki was 42.5 ± 2.6 nM.
